Results as given in patent publication US11155523B2, “Biphenyl compound as CCR2/CCR5 receptor antagonist” (Medshine Discovery Inc., priority 2016, dated 2021).

Columns and labels:
[1] = Comparative pharmacokinetics study in rats; format: in vivo, SD male rats; settings: rat; for clearance / half-life / bioavailability: male, Sprague-Dawley (SD), plasma; for clearance / half-life / Area Under a Curve (0-inf): intravenous injection 2 mg/kg; for bioavailability: oral 10 mg/kg vs intravenous 2 mg/kg; for Area Under a Curve (0-inf/0-last) / Peak time: oral 10 mg/kg; for Oral plasma system exposure (AUC0-inf) as multiple of the reference compound / Plasma clearance as percent of that of the reference compound: relative to Cenicriviroc
Description: Experimental Example 2: Comparative Pharmacokinetics Study in Rats
(§1) SD male rats were used as the test animals in this study. The drug concentrations in plasma of the rats by intravenous or oral administration of test compounds WX017, WX047, WX079, WX088 and reference compound at different time points were quantitatively determined by LC/MS/MS, which were used to evaluate the pharmacokinetic profile of the two test drugs in rats.
A clear solution of the test compound was injected into SD rats via the tail vein (overnight fasting, 7-10 weeks old), and the test compound was orally administered to the SD rats (overnight fasting, 7-10 weeks old). Approximately 200 μL of blood was collected from the jugular vein or tail vein of the animals 0.0833, 0.25, 0.5, 1, 2, 4, 6, 8 and 24 hours after administration, and was placed in an anticoagulant tube containing EDTA-K2. The plasma was collected by centrifugation at 3000 g for 15 minutes at 4° C. The plasma concentration was determined by LC-MS/MS. The pharmacokinetic parameters were calculated by the non-compartment model linear logarithmic trapezoidal method using WinNonlin™ Version 6.3 (Pharsight, Mountain View, Calif.) pharmacokinetic software.

[2] = Comparative pharmacokinetics study in cynomolgus monkeys; format: in vivo; settings: cynomolgus monkey
From the text: Experimental Example 3: Comparative Pharmacokinetics Study in Cynomolgus Monkeys
as §1, with “Male cynomolgus monkeys” for “SD male rats”, “cynomolgus monkeys” for “rats”, “compound WX047” for “compounds WX017, WX047, WX079, WX088”, “cynomolgus monkeys.” for “rats.”
A clear solution of the test compound was injected into cynomolgus monkeys via t the cephalic or saphenous vein (overnight fasting, 2.5-7 kg), and the test compound was intragastrically administered to the cynomolgus monkeys (overnight fasting, 7-10 weeks old). Approximately 400 μL of blood was collected from the peripheral vein of the animals 0.0833, 0.25, 0.5, 1, 2, 4, 6, 8, 12 and 24 hours after administration, and transferred into an commercial centrifuge tube containing EDTA-K2*2H2O anticoagulation. The plasma was collected by centrifugation at 3000 g for 10 minutes at 4° C. The plasma concentration was determined by LC-MS/MS. The pharmacokinetic parameters were calculated by the non-compartment model linear logarithmic trapezoidal method using WinNonlin™ Version 6.3 (Pharsight, Mountain View, Calif.) pharmacokinetic software.

[3] = target: T1, CYP1A2 (Homo sapiens, UniProt P05177); assay: Inhibition of human liver microsomal CYP1A2 (phenacetin probe); format: in vitro ADME; settings: human liver microsomes
T1 construct: from tissue; host or cells: human liver microsomes
T1 sequence (P05177 1-516): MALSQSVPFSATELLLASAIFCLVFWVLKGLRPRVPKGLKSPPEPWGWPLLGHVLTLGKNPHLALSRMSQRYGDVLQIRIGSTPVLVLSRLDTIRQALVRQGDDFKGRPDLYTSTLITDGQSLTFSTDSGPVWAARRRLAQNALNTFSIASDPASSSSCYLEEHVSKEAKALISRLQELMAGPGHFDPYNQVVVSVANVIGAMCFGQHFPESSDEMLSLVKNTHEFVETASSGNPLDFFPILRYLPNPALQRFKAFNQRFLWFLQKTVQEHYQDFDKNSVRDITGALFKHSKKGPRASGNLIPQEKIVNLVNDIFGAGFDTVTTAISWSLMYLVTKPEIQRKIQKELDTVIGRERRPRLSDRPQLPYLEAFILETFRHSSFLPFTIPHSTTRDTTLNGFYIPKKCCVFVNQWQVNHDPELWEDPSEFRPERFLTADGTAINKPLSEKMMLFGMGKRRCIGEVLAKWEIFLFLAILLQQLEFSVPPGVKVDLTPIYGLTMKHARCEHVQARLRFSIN
Description: (§2) Experimental Example 4 Inhibition Effect on the Activity of Human Liver Microsomal Cytochrome P450 Isoezymes (CYP1A2, CYP2C9, CYP2C19, CYP2D6 and CYP3A4)
(§3) A total of 5 specific probe substrates for CYP's five isozymes, Phenacetin (CYP1A2), Diclofenac (CYP2C9), […] (S)-Mephenytoin, CYP2C19), Dextromethorphan (CYP2D6) and Midazolam (CYP3A4) were incubated with human liver microsomes and test compounds, respectively, and reduced nicotinamide adenine dinucleotide phosphate (NADPH) was added to initiate the reaction. After the reaction, the sample was processed and liquid chromatography tandem mass spectrometry (LC-MS/MS) was used to quantitatively detect the […] metabolites produced by the specific substrate, Acetaminophen and 4′-hydroxydiclofenac, 4′-hydroxymephenytoin, Dextrorphan and 1′-hydroxymidazolam, in order to calculate the corresponding half maximal inhibitory concentration (IC50).

[4] = target: T2, CYP2C9 (Homo sapiens, UniProt P11712); assay: Inhibition of human liver microsomal CYP2C9 (diclofenac probe); format: in vitro ADME; settings: human liver microsomes
T2 construct: from tissue; host or cells: human liver microsomes
T2 sequence (P11712 whole entry): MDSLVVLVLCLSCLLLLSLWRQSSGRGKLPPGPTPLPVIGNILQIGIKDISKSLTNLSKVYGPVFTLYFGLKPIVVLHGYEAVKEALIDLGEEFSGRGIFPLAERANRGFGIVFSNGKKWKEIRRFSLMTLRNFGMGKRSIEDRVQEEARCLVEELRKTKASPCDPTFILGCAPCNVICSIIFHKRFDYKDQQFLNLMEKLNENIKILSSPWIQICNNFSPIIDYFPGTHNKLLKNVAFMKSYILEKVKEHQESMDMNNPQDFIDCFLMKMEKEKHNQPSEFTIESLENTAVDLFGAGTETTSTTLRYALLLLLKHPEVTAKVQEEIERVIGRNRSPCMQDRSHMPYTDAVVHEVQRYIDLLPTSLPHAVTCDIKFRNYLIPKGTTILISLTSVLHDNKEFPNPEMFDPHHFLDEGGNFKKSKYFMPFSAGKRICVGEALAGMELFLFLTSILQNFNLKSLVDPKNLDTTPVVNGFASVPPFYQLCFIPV
Description: as §2, §3

[5] = target: T3, CYP2C19 (Homo sapiens, UniProt P33261); assay: Inhibition of human liver microsomal CYP2C19 ((S)-mephenytoin probe); format: in vitro ADME; settings: human liver microsomes
T3 construct: from tissue; host or cells: human liver microsomes
T3 sequence (P33261 whole entry): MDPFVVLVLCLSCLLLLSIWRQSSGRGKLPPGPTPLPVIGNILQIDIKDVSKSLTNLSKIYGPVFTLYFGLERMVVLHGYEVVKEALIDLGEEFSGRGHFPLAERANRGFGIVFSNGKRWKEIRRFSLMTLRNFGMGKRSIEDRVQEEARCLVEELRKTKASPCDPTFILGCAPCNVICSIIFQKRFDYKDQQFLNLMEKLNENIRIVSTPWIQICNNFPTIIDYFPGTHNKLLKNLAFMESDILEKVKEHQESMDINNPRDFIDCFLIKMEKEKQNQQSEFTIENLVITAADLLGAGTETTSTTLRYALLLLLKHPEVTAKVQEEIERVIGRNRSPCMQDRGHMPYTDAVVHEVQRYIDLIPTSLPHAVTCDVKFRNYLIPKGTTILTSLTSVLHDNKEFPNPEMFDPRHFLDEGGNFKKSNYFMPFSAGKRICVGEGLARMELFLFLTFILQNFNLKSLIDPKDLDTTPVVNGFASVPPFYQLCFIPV
Description: as §2, §3

[6] = target: T4, CYP2D6 (Homo sapiens, UniProt P10635); assay: Inhibition of human liver microsomal CYP2D6 (dextromethorphan probe); format: in vitro ADME; settings: human liver microsomes
T4 construct: from tissue; host or cells: human liver microsomes
T4 sequence (P10635 whole entry): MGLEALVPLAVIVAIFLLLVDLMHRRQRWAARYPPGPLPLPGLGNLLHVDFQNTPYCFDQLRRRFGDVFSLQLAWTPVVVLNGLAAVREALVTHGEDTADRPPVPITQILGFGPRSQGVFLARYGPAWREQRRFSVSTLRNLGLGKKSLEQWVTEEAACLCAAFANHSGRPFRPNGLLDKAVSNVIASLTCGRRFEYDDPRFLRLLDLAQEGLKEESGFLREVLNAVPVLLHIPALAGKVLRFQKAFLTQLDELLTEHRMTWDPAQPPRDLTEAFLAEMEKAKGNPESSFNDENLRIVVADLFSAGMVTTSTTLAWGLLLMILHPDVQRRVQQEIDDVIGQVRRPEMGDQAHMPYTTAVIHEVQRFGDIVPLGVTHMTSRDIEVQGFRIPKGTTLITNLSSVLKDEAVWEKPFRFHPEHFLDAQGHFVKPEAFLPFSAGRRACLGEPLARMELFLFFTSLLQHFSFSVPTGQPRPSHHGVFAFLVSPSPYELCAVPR
Description: as §2, §3

[7] = target: T5, CYP3A4 (Homo sapiens, UniProt P08684); assay: Inhibition of human liver microsomal CYP3A4 (midazolam probe); format: in vitro ADME; settings: human liver microsomes; for IC50: probe midazolam
T5 construct: from tissue; host or cells: human liver microsomes
T5 sequence (P08684 whole entry): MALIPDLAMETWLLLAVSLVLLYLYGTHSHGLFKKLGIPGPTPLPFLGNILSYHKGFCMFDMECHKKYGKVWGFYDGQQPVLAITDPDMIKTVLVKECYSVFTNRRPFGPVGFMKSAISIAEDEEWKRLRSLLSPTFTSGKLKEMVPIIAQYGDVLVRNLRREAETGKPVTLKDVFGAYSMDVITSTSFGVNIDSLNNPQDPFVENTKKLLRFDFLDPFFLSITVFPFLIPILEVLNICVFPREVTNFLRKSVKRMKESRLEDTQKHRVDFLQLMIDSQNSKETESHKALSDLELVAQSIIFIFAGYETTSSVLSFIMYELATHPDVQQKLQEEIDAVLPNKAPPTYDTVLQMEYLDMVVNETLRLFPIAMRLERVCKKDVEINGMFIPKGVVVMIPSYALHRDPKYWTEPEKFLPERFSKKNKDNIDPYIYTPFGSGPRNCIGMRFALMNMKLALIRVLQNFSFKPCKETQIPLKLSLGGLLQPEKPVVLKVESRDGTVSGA
Description: as §2, §3

[8] = target: T6, CCR2 (Homo sapiens, UniProt P41597); assay: CCR2 in vitro test: intracellular calcium signal detected by FLIPR; format: cell-based; settings: HEK293 cells expressing CCR2, agonist MCP-1 at EC80, calcium signal
T6 construct: expressed in transfected cells; host or cells: HEK293, clone C7, passage P6
T6 sequence (P41597 whole entry, species assumed): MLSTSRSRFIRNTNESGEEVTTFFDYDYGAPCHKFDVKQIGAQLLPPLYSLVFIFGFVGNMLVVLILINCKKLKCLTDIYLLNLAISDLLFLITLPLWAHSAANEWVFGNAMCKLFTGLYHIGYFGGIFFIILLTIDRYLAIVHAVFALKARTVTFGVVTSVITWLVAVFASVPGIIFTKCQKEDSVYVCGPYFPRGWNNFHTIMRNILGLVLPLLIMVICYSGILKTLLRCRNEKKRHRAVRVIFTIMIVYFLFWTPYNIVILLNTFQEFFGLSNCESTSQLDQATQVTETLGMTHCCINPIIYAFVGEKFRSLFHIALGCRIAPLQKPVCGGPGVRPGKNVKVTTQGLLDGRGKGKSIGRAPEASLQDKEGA
Description: (§4) Experimental Example 1: CCR2/CCR5 In Vitro Test
(§5) The intracellular calcium signal was detected by FLIPR, and the IC50 value of the compound was used as an index to evaluate the inhibitory effect of the compound on CCR2 and CCR5 receptors.
(§6) 1. Cell line: The cells were inoculated and incubated in a 5% CO2 incubator at 37° C. overnight.
(§7) CCR2/CCR5 density: 1 M (20 k/well)
(§8) 2. Reagents: Fluo-4 Direct, (Invitrogen, Cat #F10471)
(§9) The compound was dissolved in DMSO to prepare a 10 mM solution, and the compound solution was placed in a nitrogen box.
(§10) Agonist reference compounds:
(§11) Preparation of probenecid in FLIPR assay buffer: 1 mL of FLIPR assay buffer was added to […] of probenecid to prepare a 250 mM solution, which is prepared fresh daily.
(§12) 2× (8 μM) Fluo-4 Direct™ Loading Buffer (per 10 mL) • Thaw a bottle of Fluo-4 Direct™ crystal (F10471). • Add 10 mL of FLIPR assay buffer to the vial. • Add 0.2 mL of probenecid to each 10 mL of Fluo-Direct. The final concentration of the assay was 2.5 mM. • Rotate it and place for >5 minutes (in absence of light). • Prepare fresh daily.
(§13) MCP-1 was diluted in FLIPR assay buffer 1:2 into 10 points, starting at 0.5 uM (final 100 nM). RANTES was diluted in FLIPR assay buffer 1:3 into 10 points, starting at 0.5 uM (final 100 nM). 20 uL of serially diluted compound buffer was added to each well of the DRC plate according to the compound plate map.
(§14) Standard compound was diluted in DMSO 1:3 into 11 points, starting at 1 mM. Test compound was diluted in DMSO 1:3 into 11 points, starting at 2 mM. 250 nL of compound solution was transferred into a cell plate using Echo (Greiner #781946).
(§15) (c) Take the cell plate out of the incubator, and gently dispense 20 uL of 2× Fluo-4 Direct wash-free loading buffer into a 384-well cell culture plate using a pipette. The final cell plate is 40 μL in volume.
(§16) (d) Incubate for 50 minutes at 37° C. under 5% CO2, and for 10 minutes at room temperature.
(§17) (e) Take the cell plate out of the incubator, and place it in FLIPR. Place the composite plate and the tip box in FLIPR.
(§18) (f) For DRC plate: • 1) Run the program on FLIPRTETRA. • 2) Read the fluorescent signal. • 3) Transfer 10 μL of compound from the DRC plate to the cell plate. • 4) Read the fluorescent signal. • 5) Calculate the “maximum−minimum” from Read 90 to the maximum allowed. Use FLIPR to calculate the EC80 value of each cell line. • 6) Prepare 5×EC80 concentration of the agonist reference compound.
(§19) (g) For the composite plate (1-add): • 1) Run the program on FLIPRTETRA. • 2) Transfer 10 μl, of 5×EC80 concentration of the agonist reference compound from the composite plate to the cell plate. • 3) Read the fluorescent signal. • 4) Calculate the “maximum−minimum” from Read 90 to the maximum allowed.
(§20) (h) Analyze the data using Prism, and calculate the IC50 value of the compound.

[9] = target: T7, CCR5 (Homo sapiens, UniProt P51681); assay: CCR5 in vitro test: intracellular calcium signal detected by FLIPR; format: cell-based; settings: HEK293 cells expressing CCR5, agonist RANTES at EC80, calcium signal
T7 construct: expressed in transfected cells; host or cells: HEK293, clone C13, passage P4
T7 sequence (P51681 whole entry, species assumed): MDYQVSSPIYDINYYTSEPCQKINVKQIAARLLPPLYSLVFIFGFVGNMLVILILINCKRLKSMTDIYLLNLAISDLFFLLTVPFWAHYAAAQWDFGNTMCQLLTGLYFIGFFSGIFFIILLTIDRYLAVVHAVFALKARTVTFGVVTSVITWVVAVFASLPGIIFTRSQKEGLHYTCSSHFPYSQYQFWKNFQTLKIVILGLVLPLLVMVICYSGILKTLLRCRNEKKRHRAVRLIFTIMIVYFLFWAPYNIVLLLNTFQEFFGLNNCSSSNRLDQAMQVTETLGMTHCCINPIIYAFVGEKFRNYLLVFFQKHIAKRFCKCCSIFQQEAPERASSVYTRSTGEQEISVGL
Description: as §4, §5, §6, §7, §8, §9, §10, §11, §12, §13, §14, §15, §16, §17, §18, §19, §20

[10] = tested on: human liver microsomal cytochrome P450 isoenzymes; assay: Inhibition of human liver microsomal cytochrome P450 isoenzymes, overall conclusion; format: in vitro ADME; settings: human liver microsomes
Description: as §2, §3

[11] = male, plasma, intravenous injection 1 mg/kg

Row | clearance [1] [mL/min/kg] | half-life [1] [h] | bioavailability [1] [%] | Area Under a Curve (0-inf) [1] [µM·h] | Area Under a Curve (0-inf/0-last) [1] [µM·h] | Peak time [1] [h] | IC50 [3] [µM] | IC50 [4] [µM] | IC50 [5] [µM] | IC50 [6] [µM] | IC50 [7] [µM] | IC50 [8] [µM] | IC50 [9] [µM] | Oral plasma system exposure (AUC0-inf) as multiple of the reference compound [1] [times] | Plasma clearance as percent of that of the reference compound [1] [%] | SMILES | also measured
1 | 1.57 | 5.48 | 20.4 | 31.344 | 31.956 | 4.0 | > 50 | > 50 | > 50 | > 50 | 5.6 | – | – | – | – | CCCCOCCOc1ccc(-c2ccc3c(c2)/C=C(/C(=O)Nc2ccc([S@@+]([O-])Cc4cncn4CCC)cc2)CCCN3CC(C)C)cc1 [(Cenicriviroc), Cenicriviroc, reference compound] | Area Under a Curve (0-inf) ([2]; intravenous injection 1 mg/kg): 2.766 µM·h; Area Under a Curve (0-inf/0-last) ([2]; oral 3 mg/kg): 0.424 µM·h; Peak time ([2]; oral 3 mg/kg): 2.0 h; clearance [2, 11]: 8.74 mL/min/kg; half-life [2, 11]: 5.37 h; bioavailability ([2]; male, plasma, oral 3 mg/kg vs intravenous 1 mg/kg): 5.11%; Inhibitory effect on CYP3A4 (conclusion in words) [7]: weak inhibitory effect
2 | 0.4 | 3.69 | 48.9 | 135.732 | 331.778 | 1.5 | – | – | – | – | – | 0.013 | 0.0079 | 10.4 | 25 | CCCCOCCOc1ccc(-c2ccc(OC)c(/C=C/C(=O)Nc3ccc([S@@+]([O-])Cc4cncn4CCC)cc3)c2)cc1 [WX017] | –
3 | 0.224 | 9.47 | 32.6 | 255.072 | 404.142 | 3.0 | > 50 | > 50 | > 50 | > 50 | 28.3 | 0.0056 | 0.0058 | 12.6 | 14 | CCCCOCCOc1ccc(-c2ccc(OC)c(/C=C/C(=O)Nc3ccc([S@+]([O-])Cc4c(C)ncn4CC)cc3)c2)cc1 [WX079] | Risk of inhibiting isoenzymes of human liver microsomal cytochrome P450 (conclusion in words) [10]: no risk on inhibiting five isoenzymes
4 | 0.328 | 6.63 | 15.7 | 150.423 | 122.101 | 3.0 | – | – | – | – | – | 0.0035 | 0.0043 | 3.8 | 21 | CCCCOCCOc1ccc(-c2cc(F)c(OC)c(/C=C/C(=O)Nc3ccc([S@+]([O-])Cc4c(C)ncn4CC)cc3)c2)cc1 [WX088] | –
